Tests used:
Experiment in all cases: normalised response (% of control), CellTox Green; higher = less cell death (100 = DMSO, 0 = benzethonium chloride kill control)
Conditions in all cases: incubation time: 72 h
MDA-MB-453 = test system: MDA-MB-453
How it was run: (§1)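 Compound was dispensed into 384-well plates at 5 concentrations in 10-fold steps spanning a 10,000-fold range specific to that compound. Breast cancer cell lines were added as 20 µl suspension and left for 72 h before CellTox Green fluorescence (485/520 nm) and then CellTiter-Glo luminescence, read after 10 min at room temperature. Each reported value is the normalised signal at one concentration, with 0.1 % DMSO set at 100 and a positive kill control at 0 on each plate.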

DU-4475 = test system: DU-4475
How it was run: as §1

Hs578T = test system: Hs578T
How it was run: as §1

HDQ-P1 = test system: HDQ-P1
How it was run: as §1

HCC1937 = test system: HCC1937
How it was run: as §1

MDA-MB-231 = test system: MDA-MB-231
How it was run: as §1

In the case of `O=C1c2c(O)ccc(O)c2C(=O)c2c(NCCNCCO)ccc(NCCNCCO)c21` [Mitoxantrone] (100 nM), the normalised response (MDA-MB-453) is reported as 104%, the normalised response (DU-4475) is reported as 99.1% and the normalised response (Hs578T) is reported as 106%. It also gave a normalised response (HDQ-P1) of 101%, a normalised response (HCC1937) of 117% and a normalised response (MDA-MB-231) of 94.8%.

Work on `O=C1c2c(O)ccc(O)c2C(=O)c2c(NCCNCCO)ccc(NCCNCCO)c21` [Mitoxantrone] (1000 nM) yielded a normalised response (MDA-MB-453) of 112%, a normalised response (DU-4475) of 94.2% and a normalised response (Hs578T) of 112%. It also gave a normalised response (HDQ-P1) of 98.8%, a normalised response (HCC1937) of 117% and a normalised response (MDA-MB-231) of 119%.

In the case of `Nc1ccccc1NC(=O)c1ccc(CNc2nccc(-c3cccnc3)n2)cc1` [Mocetinostat] (1000 nM), the normalised response (MDA-MB-453) is reported as 99.2%, the normalised response (DU-4475) is reported as 93% and the normalised response (Hs578T) is reported as 59.8%. It also gave a normalised response (HCC1937) of 105% and a normalised response (MDA-MB-231) of 81.3%.

For `Nc1ccccc1NC(=O)c1ccc(CNc2nccc(-c3cccnc3)n2)cc1` [Mocetinostat] (10000 nM), the normalised response (MDA-MB-453) was 92.3%, the normalised response (DU-4475) was 72.3% and the normalised response (Hs578T) was 48.6%. The normalised response (HDQ-P1) was -1.8%, the normalised response (HCC1937) was 69.9% and the normalised response (MDA-MB-231) was -24.5%.

`COc1nc(N)nc2c1ncn2[C@@H]1O[C@H](CO)[C@@H](O)[C@@H]1O` [Nelarabine] (1000 nM) showed a normalised response (MDA-MB-453) of 104%, a normalised response (DU-4475) of 94.7% and a normalised response (Hs578T) of 107%. For the same compound, the normalised response (HDQ-P1) was 78.7%, the normalised response (HCC1937) was 100% and the normalised response (MDA-MB-231) was 106%.

Compound `COc1nc(N)nc2c1ncn2[C@@H]1O[C@H](CO)[C@@H](O)[C@@H]1O` [Nelarabine] (10000 nM) has a normalised response (MDA-MB-453) of 87%, a normalised response (DU-4475) of 98.5% and a normalised response (Hs578T) of 91.4%. For the same compound, the normalised response (HDQ-P1) was 111%, the normalised response (HCC1937) was 94.5% and the normalised response (MDA-MB-231) was 97.9%.

Compound `Cc1ccc(Nc2nccc(N(C)c3ccc4c(C)n(C)nc4c3)n2)cc1S(N)(=O)=O` [Pazopanib] (1000 nM) has a normalised response (MDA-MB-453) of 95.2%, a normalised response (DU-4475) of 100% and a normalised response (Hs578T) of 110%. It also gave a normalised response (HDQ-P1) of 94.3%, a normalised response (HCC1937) of 101% and a normalised response (MDA-MB-231) of 99.5%.

`Cc1ccc(Nc2nccc(N(C)c3ccc4c(C)n(C)nc4c3)n2)cc1S(N)(=O)=O` [Pazopanib] (10000 nM) showed a normalised response (MDA-MB-453) of 102%, a normalised response (DU-4475) of 104% and a normalised response (Hs578T) of 77.2%. It also gave a normalised response (HDQ-P1) of 111%, a normalised response (HCC1937) of 85.7% and a normalised response (MDA-MB-231) of 99.7%.

`O=C(CCBr)N1CCN(C(=O)CCBr)CC1` [Pipobroman] (1000 nM) gave a normalised response (MDA-MB-453) of 90.5%, a normalised response (DU-4475) of 101% and a normalised response (Hs578T) of 91.2%. It also gave a normalised response (HDQ-P1) of 100%, a normalised response (HCC1937) of 93.2% and a normalised response (MDA-MB-231) of 96.7%.

`O=C(CCBr)N1CCN(C(=O)CCBr)CC1` [Pipobroman] (10000 nM) showed a normalised response (MDA-MB-453) of 96.5%, a normalised response (DU-4475) of 96.9% and a normalised response (Hs578T) of 128%. The normalised response (HDQ-P1) was 104%, the normalised response (HCC1937) was 105% and the normalised response (MDA-MB-231) was 83.1%.

`C[C@]12C=CC(=O)C=C1CC[C@@H]1[C@@H]2[C@@H](O)C[C@@]2(C)[C@H]1CC[C@]2(O)C(=O)CO` [Prednisolone] (1000 nM) showed a normalised response (DU-4475) of 102%, a normalised response (Hs578T) of 104% and a normalised response (HCC1937) of 122%. The normalised response (MDA-MB-231) was 142%.

Compound `C[C@]12C=CC(=O)C=C1CC[C@@H]1[C@@H]2[C@@H](O)C[C@@]2(C)[C@H]1CC[C@]2(O)C(=O)CO` [Prednisolone] (10000 nM) has a normalised response (MDA-MB-453) of 94.6%, a normalised response (DU-4475) of 100% and a normalised response (Hs578T) of 66.8%. It also gave a normalised response (HDQ-P1) of 57.2%, a normalised response (HCC1937) of 56.3% and a normalised response (MDA-MB-231) of 150%.

Compound `CNC(=O)c1cc(Oc2ccc(NC(=O)Nc3ccc(Cl)c(C(F)(F)F)c3)cc2)ccn1` [Sorafenib] (100 nM) has a normalised response (MDA-MB-453) of 95.1%, a normalised response (DU-4475) of 99.9% and a normalised response (HDQ-P1) of 67.2%. The normalised response (HCC1937) was 92% and the normalised response (MDA-MB-231) was 101%.

In the case of `CNC(=O)c1cc(Oc2ccc(NC(=O)Nc3ccc(Cl)c(C(F)(F)F)c3)cc2)ccn1` [Sorafenib] (1000 nM), the normalised response (MDA-MB-453) is reported as 102%, the normalised response (DU-4475) is reported as 97.7% and the normalised response (Hs578T) is reported as 118%. For the same compound, the normalised response (HDQ-P1) was 103%, the normalised response (HCC1937) was 99.2% and the normalised response (MDA-MB-231) was 100%.

`CCN(CC)CCNC(=O)c1c(C)[nH]c(/C=C2\C(=O)Nc3ccc(F)cc32)c1C` [Sunitinib] (100 nM) gave a normalised response (MDA-MB-453) of 102%, a normalised response (DU-4475) of 98.1% and a normalised response (Hs578T) of 77%. The normalised response (HDQ-P1) was 76.8%, the normalised response (HCC1937) was 114% and the normalised response (MDA-MB-231) was 123%.

`CCN(CC)CCNC(=O)c1c(C)[nH]c(/C=C2\C(=O)Nc3ccc(F)cc32)c1C` [Sunitinib] (1000 nM) showed a normalised response (MDA-MB-453) of 104%, a normalised response (DU-4475) of 99.7% and a normalised response (Hs578T) of 95.9%. The normalised response (HDQ-P1) was 101%, the normalised response (HCC1937) was 93.9% and the normalised response (MDA-MB-231) was 124%.

`CC[C@@]1(O)C(=O)OCc2c1cc1n(c2=O)Cc2cc3c(CN(C)C)c(O)ccc3nc2-1` [Topotecan] (100 nM) was tested, and the normalised response (MDA-MB-453) was 108%, the normalised response (DU-4475) was 94.9% and the normalised response (Hs578T) was 98.7%. The normalised response (HDQ-P1) was 103%, the normalised response (HCC1937) was 52.5% and the normalised response (MDA-MB-231) was 108%.

`CC[C@@]1(O)C(=O)OCc2c1cc1n(c2=O)Cc2cc3c(CN(C)C)c(O)ccc3nc2-1` [Topotecan] (1000 nM) was tested, and the normalised response (MDA-MB-453) was 108%, the normalised response (DU-4475) was 83.2% and the normalised response (HCC1937) was 95.1%.

Source: the supplement of paper PMC4862054
